Laboratory results from US6596721B2, “Stable crystalline (6R) -tetrahydrofolic acid” (Eprova AG, priority 1994, dated 2003).

Assay: Stability on storage under severe conditions at 60° C. in the air (remaining tetrahydrofolic acid content by HPLC, colour)
Assay type: physicochemical
Settings: for Colour / discoloration: after a prolonged test period at 60° C. in the air
Protocol: The tetrahydrofolic acid contents and the isomer contents given in the following examples were in each case determined by HPLC. All tetrahydrofolic acid contents are based on the anhydrous substance.
To determine the stability of crystalline (6S)- and (6R)-tetrahydrofolic acid, the substances together with comparison samples were stored under severe conditions at 60° C. in the air. The remaining tetrahydrofolic acid content was measured at periodic intervals and is shown in comparison with the initial value.
In contrast, the other products which are included for comparison reasons discolor rapidly to a high degree.
The substances employed for the stability tests were prepared as follows:
crystalline (6S)-tetrahydrofolic acid as in Example 6 of the present patent application crystalline (6R)-tetrahydrofolic acid as in Example 9 of the present patent application “Yamanouchi's crystalline (6R,S)-tetrahydrofolic acid” as in DE-OS 2 323 124, Example 3
amorphous (6S)-tetrahydrofolic acid (6S)-tetrahydrofolic acid is dissolved in acetic acid and precipitated using diethyl ether
amorphous (6R)-tetrahydrofolic acid (6R)-tetrahydrofolic acid is dissolved in acetic acid and precipitated using diethyl ether
amorphous (6R,S)-tetrahydrofolic acid (6R,S)-tetrahydrofolic acid is dissolved in acetic acid and precipitated using diethyl ether.

[1] = 0 days (initial value), 60° C. in air

Row | Structure (SMILES) | Remaining tetrahydrofolic acid content in comparison with the initial value [1] | Remaining tetrahydrofolic acid content in comparison with the initial value (2 days at 60° C. in air) | Remaining tetrahydrofolic acid content in comparison with the initial value (13 days at 60° C. in air) | Remaining tetrahydrofolic acid content in comparison with the initial value (21 days at 60° C. in air) | Remaining tetrahydrofolic acid content in comparison with the initial value (57 days at 60° C. in air) | Remaining tetrahydrofolic acid content in comparison with the initial value (0 h) | Remaining tetrahydrofolic acid content in comparison with the initial value (48 h) | Remaining tetrahydrofolic acid content in comparison with the initial value (144 h) | Remaining tetrahydrofolic acid content in comparison with the initial value (312 h) | Remaining tetrahydrofolic acid content in comparison with the initial value (504 h) | Remaining tetrahydrofolic acid content in comparison with the initial value (1368 h) | Colour / discoloration | Remaining tetrahydrofolic acid content in comparison with the initial value (6 days at 60° C. in air) | Remaining tetrahydrofolic acid content in comparison with the initial value (28 days at 60° C. in air) | Remaining tetrahydrofolic acid content in comparison with the initial value (360 days at 60° C. in air)
1 | Nc1nc(=O)c2c([nH]1)NC[C@@H](CNc1ccc(C(=O)N[C@@H](CCC(=O)O)C(=O)O)cc1)N2 [Crystalline (6R)-tetrahydrofolic acid, N-[4-[[(2-amino-1,4,5,6,7,8-hexahydro-4-oxo-(6R)-pteridinyl)methyl]amino]benzoyl]-Lglutamic acid] | – | – | – | – | – | 100.0% | 96.4% | 96.1% | 93.3% | 92.7% | 82.0% | remain very pale, almost white | – | – | –
2 | Nc1nc2c(c(=O)[nH]1)N[C@H](CNc1ccc(C(=O)N[C@@H](CCC(=O)O)C(=O)O)cc1)CN2 [Yamanouchi's crystalline (6R,S)-tetrahydrofolic acid] | 100.0% | 83.6% | 48.6% | 31.0% | 13.4% | – | – | – | – | – | – | – | – | – | –
3 | Nc1nc2c(c(=O)[nH]1)N[C@@H](CNc1ccc(C(=O)N[C@@H](CCC(=O)O)C(=O)O)cc1)CN2 [Crystalline (6S)-tetrahydrofolic acid, (6S)-tetrahydrofolic acid] | 100.0% | 100.1% | 98.7% | 103.6% | 101.2% | – | – | – | – | – | – | remain very pale, almost white | 102.5% | 103.1% | 93.3%
4 | Nc1nc2c(c(=O)[nH]1)N[C@@H](CNc1ccc(C(=O)N[C@@H](CCC(=O)O)C(=O)O)cc1)CN2 [Amorphous (6S)-tetrahydrofolic acid, (6S)-tetrahydrofolic acid] | 100.0% | 60.4% | 13.7% | 7.9% | – | – | – | – | – | – | – | – | – | – | –

Next, values leading:

Row | Remaining tetrahydrofolic acid content in comparison with the initial value [1] | Remaining tetrahydrofolic acid content in comparison with the initial value (2 days at 60° C. in air) | Remaining tetrahydrofolic acid content in comparison with the initial value (13 days at 60° C. in air) | Remaining tetrahydrofolic acid content in comparison with the initial value (21 days at 60° C. in air) | Remaining tetrahydrofolic acid content in comparison with the initial value (57 days at 60° C. in air) | Remaining tetrahydrofolic acid content in comparison with the initial value (0 h) | Remaining tetrahydrofolic acid content in comparison with the initial value (48 h) | Remaining tetrahydrofolic acid content in comparison with the initial value (144 h) | Remaining tetrahydrofolic acid content in comparison with the initial value (312 h) | Remaining tetrahydrofolic acid content in comparison with the initial value (504 h) | Remaining tetrahydrofolic acid content in comparison with the initial value (1368 h) | Colour / discoloration | Remaining tetrahydrofolic acid content in comparison with the initial value (6 days at 60° C. in air) | Remaining tetrahydrofolic acid content in comparison with the initial value (28 days at 60° C. in air) | Remaining tetrahydrofolic acid content in comparison with the initial value (360 days at 60° C. in air) | Structure (SMILES)
5 | 100.0% | 70.5% | 29.1% | 21.6% | 9.8% | – | – | – | – | – | – | – | – | – | – | Nc1nc2c(c(=O)[nH]1)N[C@H](CNc1ccc(C(=O)N[C@@H](CCC(=O)O)C(=O)O)cc1)CN2 [amorphous (6R)-tetrahydrofolic acid, (6R)-tetrahydrofolic acid]
6 | 100.0% | 53.4% | 17.4% | 13.2% | – | – | – | – | – | – | – | – | – | – | – | Nc1nc2c(c(=O)[nH]1)N[C@H](CNc1ccc(C(=O)N[C@@H](CCC(=O)O)C(=O)O)cc1)CN2 (mixture of isomers) [amorphous (6R,S)-tetrahydrofolic acid, (6R,S)-tetrahydrofolic acid]
